Holding throughout (assay): DTP human tumour cell line panel, 48 h
Assay [1] concerns M14.
The test system of assay [2] is OVCAR-3.
The test system of assay [3] is OVCAR-4.
The test system of assay [4] is IGROV-1.
The subject of assay [5] is SN12C.
Assay [6] deals with SK-MEL-5.
For assay [7], the system named is SNB-75.
Assay [8] relates to HT-29.
In assay [9] the test system is NCI-H226.
Assay [10] concerns UACC-62.
For assay [11], the system named is SF-539.
The test system of assay [12] is COLO 205.
Assay [13] has as its system HCC 2998.
In assay [14] the test system is SW-620.
The test system of assay [15] is HCT-15.
The test system of assay [16] is DLD-1.
Assay [17] deals with EKVX.

The term GI50 denotes the concentration that inhibits growth by half.

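Five concentrations, 48 hours, 96-well plates. The concentration for 50% growth inhibition is given as GI50.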 Active and inactive are the calls of the source. Cut-off read from the data, not from the text of the source: active = GI50 up to about 1.1 µM and inactive = higher.

With `N#Cc1c(-c2ccco2)cc(-c2ccccc2)nc1O`, the GI50 was > 100 µM (inactive) in [1]; > 100 µM (inactive) in [2]; 63.4 µM (inactive) in assay [3]; > 100 µM (inactive) in assay [4]; > 100 µM (inactive) in [5]; > 100 µM (inactive) in assay [6]. Also, the GI50 was 56.4 µM (inactive) in assay [7]; > 100 µM (inactive) in [8]; > 100 µM (inactive) in assay [9]; > 100 µM (inactive) in assay [10]; > 100 µM (inactive) in assay [11]; > 100 µM (inactive) in assay [12]. Further, the GI50 in assay [13] was > 100 µM (inactive); in [14], > 100 µM (inactive); in [15] it was over 100 µM; in assay [16] it was > 100 µM (inactive); in assay [17], > 100 µM (inactive).
On to `COC(=O)C1=C(C(=O)OC)SC(=CC#CC=C2SC(C(=O)OC)=C(C(=O)OC)S2)S1`, for which the GI50 in [1] is 13.6 µM (inactive); in assay [2], 5.94 µM (inactive); in assay [3] it was 9.33 µM (inactive); in assay [4], 18.2 µM (inactive); in assay [5], 13.5 µM (inactive); in [6], 27 µM (inactive). The GI50 in assay [7] is 7 µM (inactive); in assay [8], 24.9 µM (inactive); in assay [9], 10.6 µM (inactive); in assay [10], 8.26 µM (inactive); in [11], 2.19 µM (inactive); in [12] it was 11.7 µM (inactive). The GI50 was 10.8 µM (inactive) in assay [13]; 26.9 µM (inactive) in assay [14]; 12.6 µM in [15]; 14.1 µM (inactive) in assay [16]; 52.2 µM (inactive) in assay [17].
For `Cc1cc2c(cc1Br)C1(C)CCC(C)C1(C)O2` (stereo not given), the GI50 in assay [1] is 32.3 µM (inactive); in [2], 21.7 µM (inactive); in [3] it was 39.8 µM (inactive); in assay [4], 47.6 µM (inactive); in assay [5], 24.9 µM (inactive); in assay [6] it was 29.1 µM (inactive). Moreover, the GI50 was 36.6 µM (inactive) in [7]; 30.6 µM (inactive) in assay [8]; 19.8 µM (inactive) in [9]; 44 µM (inactive) in assay [10]; > 100 µM (inactive) in [11]; 16.3 µM (inactive) in assay [12]. Further, the GI50 in assay [13] is 43 µM (inactive); in assay [14], 40.1 µM (inactive); in assay [15], 36.6 µM; in assay [16], 48.8 µM (inactive); in assay [17], 55.6 µM (inactive).
As for `CC(C)OP(=O)(NC(=S)c1ccccc1)OC(C)C`, the GI50 in [1] was > 100 µM (inactive); in assay [2], > 100 µM (inactive); in [3], > 100 µM (inactive); in [4], > 100 µM (inactive); in assay [5], 95.1 µM (inactive); in assay [6] it was 34.5 µM (inactive). The GI50 in assay [7] is > 100 µM (inactive); in assay [8], 43.5 µM (inactive); in assay [9], > 100 µM (inactive); in assay [10] it was 71.1 µM (inactive); in assay [11], > 100 µM (inactive); in [12] it was > 100 µM (inactive). Besides, the GI50 in [13] was > 100 µM (inactive); in assay [14], > 100 µM (inactive); in assay [15], over 100 µM; in assay [16], > 100 µM (inactive); in [17], > 100 µM (inactive).
On to `N#C/N=C(/NCCc1c[nH]c2ccccc12)Oc1ccccc1`, for which the GI50 was 78.5 µM (inactive) in [1]; > 100 µM (inactive) in [2]; 73.3 µM (inactive) in assay [3]; > 100 µM (inactive) in assay [4]; > 100 µM (inactive) in [5]; 35.6 µM (inactive) in assay [6]. Further, the GI50 in assay [7] was 43 µM (inactive); in assay [8], 34.8 µM (inactive); in assay [9], 77.3 µM (inactive); in [10] it was 75.3 µM (inactive); in assay [11] it was 97.9 µM (inactive); in [12], 59 µM (inactive). Also, the GI50 in [13] was 44 µM (inactive); in assay [14], > 100 µM (inactive); in [15], 56.8 µM; in [16] it was > 100 µM (inactive); in assay [17] it was 26.7 µM (inactive).

The record behind these values is ChEMBL document CHEMBL1201862, “PubChem BioAssay data set” (2004).
